Assay results taken from patent US20190350955A1, “METHODS AND PHARMACEUTICAL COMPOSITIONS FOR THE TREATMENT OF CARDIOMYOPATHIES” (INSERM (Institut National de la Sante et de la Recherche …, priority 2016, published 2019).

Experiments:
Nmrk2 = experiment: RT qPCR of Nmrk2 mRNA in NRC; assay type: cell-based, rat; conditions: AICAR treatment
Protocol: cDNAs were reverse transcribed from RNA (1.5 μg) extracted in TRIzol (Thermofisher) from cell cultures and tissues using the Superscript II Reverse Transcriptase (Life Technologies). Quantitative PCR was carried out on a Light Cycler 480 (Roche Diagnostics) using Fast Start SYBR Green Master (Roche Diagnostics). Quantification of gene expression was calculated as R=2^ΔCt(Ref Cp−target Cp), with Hprt used as a as reference. Primers were designed using the NCBI Primer-BLAST software. Primer sequences are available on request.
(§1) Isolation and Treatments of Neonatal Rat Cardiomyocytes (NRC) NRC were isolated as described previously (Diguet et al., 2011). 1-day-old rat pups were killed by decapitation and the cardiac ventricles were harvested and minced into 1 to 2-mm wide cubes with scissors. After washing with Tyrode solution, heart fragments were subjected up to 10 rounds of digestion with 0.05 mg/ml of Liberase Blendzyme 4 (Roche Applied Science) in 10 ml oxygenated Tyrode solution under agitation at 37° C. for 10 minutes. The supernatant of the first digestion was discarded and the following digestions were centrifuged and the cell pellet dissociated in 2 ml of DMEM, 10% FCS. The different fractions were pooled and centrifuged on a discontinuous Percoll gradient (bottom 58.5%. top 40.5%. 30 min. 3000 rpm) to enrich in cardiomyocytes at the interface between the 2 Percoll solutions. […]

Nmrk2 promoter = Nmrk2 promoter luciferase reporter assay in NRC; assay type: cell-based, rat; conditions: NRC, AICAR 500 μM
Protocol: Isolation and Treatments of Neonatal Rat Cardiomyocytes (NRC) NRC were isolated as described previously (Diguet et al., 2011). 1-day-old rat pups were killed by decapitation and the cardiac ventricles were harvested and minced into 1 to 2-mm wide cubes with scissors. After washing with Tyrode solution, heart fragments were subjected up to 10 rounds of digestion with 0.05 mg/ml of Liberase Blendzyme 4 (Roche Applied Science) in 10 ml oxygenated Tyrode solution under agitation at 37° C. for 10 minutes. The supernatant of the first digestion was discarded and the following digestions were centrifuged and the cell pellet dissociated in 2 ml of DMEM, 10% FCS. The different fractions were pooled and centrifuged on a discontinuous Percoll gradient (bottom 58.5%. top 40.5%. 30 min. 3000 rpm) to enrich in cardiomyocytes at the interface between the 2 Percoll solutions. Non cardiac cells containing mainly fibroblasts were at the top of the tubes. Neonatal cardiomyocytes were seeded at a density 5×10^5 cells/well in 6-well plates coated with 10 μg/ml of laminin (BD Biosciences) in DMEM without pyruvate, with glucose 4.5 g/l, 10% horse serum, 5% FCS and cultured at 37° C. in 1% CO, atmosphere. To assay the impact on NAD^+ and Nmrk2 expression, Azaserin and FK866 drugs were added in the culture medium at day 5 and renewed everyday when the treatment was prolonged over several days. The same was done for NAD^+, NR and AICAR (5-aminoimidazole-4-carboxamide-1-β-D-ribofuranoside). AICAR was administrated for 24 h only. Doses are indicated in the legends. For treatment of transfected cells (see next section), AICAR, FK866 and PPAR agonists and antagonist were administrated 1 day after transfection. PPAR agonists: GW7647 for PPARα, GW501516 for PPARβ/δ and GW1929 for PPARγ; PPAR antagonists: GW6471 PPARα, GSK3787 for PPARβ/δ and GW9662 for PPARγ were ordered from SIGMA ALDRICH CHIMIE, Saint Quentin Fallavier, France.
The transcription initiation site of mouse Nmrk2 promoter was determined by 5′RACE and was conform to the reported site in the Genebank (NM_027120.2). The promoter of the mouse Nmrk2 gene was cloned from C57B16/N genomic DNA by PCR, and inserted into a pGL4.10[luc2] luciferase reporter plasmid (Promega prod no E6651). Subsequent deletions were performed by enzymatic digestion or primer mediated subcloning of the original fragment. 2.5×10^5 cardiomyocytes in 12-well plates were co-transfected at day 2 of culture with 1 μg of Nmrk2 pGL4.10[luc2] constructs and 100 ng of pGL4.73[hRluc/SV40] Vector (Promega prod no E6911) as an internal control of transfection efficiency using Lipofectamine 2000 (Lifetechnology) as indicated by the supplier. In the case of AICAR treatment, Luciferase activity was analyzed 48 h later with the Dual-Luciferase Assay System (Promega).
The pcDNA3 vectors harboring dominant negative AMPK, PPARα, PPARβ and PPARγ as well as RXR genes were kindly provided by Pr. Michel Raymondjean (El Hadri et al. (2015). AMPK Signaling Involvement for the Repression of the IL-1beta-Induced Group IIA Secretory Phospholipase A2 Expression in VSMCs. Journal 10, e0132498; Ravaux et al. (2007). Inhibition of interleukin-1 beta-induced group 11A secretory phospholipase A2 expression by peroxisome proliferator-activated receptors (PPARs) in rat vascular smooth muscle cells: cooperation between PPARbeta and the proto-oncogene BCL-6. Journal 27, 8374-8387; Woods et al. (2000). Characterization of the role of AMP-activated protein kinase in the regulation of glucose-activated gene expression using constitutively active and dominant negative forms of the kinase. Journal 20, 6704-6711). These vectors were cotransfected at a dose of 100 ng/well in 24-well plates with 500 ng of Nmrk2 luciferase constructs.

[1] = test system: neonatal rat cardiomyocytes (NRC); experiment: NAD+ and NADH levels in NRC; assay type: cell-based; conditions: AICAR treatment
Protocol: For cell cultures, the wells were washed twice with PBS and scraped on ice in HClO4 0.5M (100 μl/well in 12-well plate). Acid extracts were neutralized with a half volume of KOH 1M/K2HPO4-KH2PO4 0.33 M pH 7.5. Heat denaturation was selective for NAD^+ in this condition. Measures were made on a volume of […], of non heated extracts (NADt) or 25 μl of heated extracts (NADH) (diluted 1/10 to 1/20).
For both types of extracts (buffered ethanol or HClO4) we added 100 μL of reaction buffer (600 mM ethanol, 0.5 mM 3-(4.5-dimethylthiazol-2-yl)-2.5-diphenyltetrazolium bromide (MTT), 2 mM phenazine ethosulfate (PES), 120 mM Bicine (pH 7.8), yeast alcohol dehydrogenase (SIGMA A3263>300 u/mg.) 0.05 mg/ml. Kinetics of the reaction (OD at 550 nm, every 30 seconds for 40 minutes) was followed on a TECAN Infinite F500 microplate reader. NAD was quantified in duplicates for each sample by comparison to a range of standard NAD^+ concentration using linear regression curve equation method between NAD^+ standard concentrations and the slope of the reaction in OD units/sec. NAD^+/NADH was obtained by the formula ([NADt]−[NADH])/[NADH]. Cell extracts were quantified for protein concentration determined by Bradford assay.
Isolation and Treatments of Neonatal Rat Cardiomyocytes (NRC) NRC were isolated as described previously (Diguet et al., 2011). […]

[2] = test system: neonatal rat cardiomyocytes (NRC); experiment: Western blot of AMPK phosphorylation and Nmrk2 protein in NRC; assay type: cell-based; conditions: AICAR 500 μM, 48 h
Protocol: Proteins were homogenized in a lysis buffer (Tris-HCl pH 7.5 50 mM, NP40 Igepal 1%, NaCl 150 mM, EDTA 1 mM, DTT 1 mM, Glycerol 10%) in the presence of proteases.
phosphatases and deacetylases inhibitors (PMSF 0.5 mM, NaF 50 mM, PPiNa 5 mM, Roche protease cocktail inhibitor 1/100, Santa Cruz deacetylase cocktail inhibitor 1/100). Equal amounts of proteins (10 to 20 μg) were separated on SDS-PAGE and transferred to nitrocellulose membranes. Proteins were detected by overnight incubation at 4° C. with primary antibodies, followed by IRDye 700 or IRDye800 fluorescent antibodies (Li-Cor Biosciences. 1/2500) and scanned on an Odyssey CLx Infrared Imaging System (Li-Cor Biosciences).
as §1, with “FCS.” for “FCS. The different fractions were pooled and centrifuged on a discontinuous Percoll gradient (bottom 58.5%. top 40.5%. 30 min. 3000 rpm) to enrich in cardiomyocytes at the interface between the 2 Percoll solutions.”

full-length p3009-Luc Nmrk2 reporter response (Nmrk2 promoter): highly responsive | p581-Luc Nmrk2 reporter response (Nmrk2 promoter): modestly responsive
Compound: NC(=O)c1ncn([C@@H]2O[C@H](COP(=O)(O)O)[C@@H](O)[C@H]2O)c1N [AICAR, 5-Aminoimidazole-4-carboxamide ribonucleotide]
Nmrk2 expression (mRNA) (Nmrk2): robustly induced | NAD+ or NADH levels [1]: did not modulate | AMPK phosphorylation [2]: stimulated | Nmrk2 expression at the protein level [2]: induced
